Test results taken from US10668032B2 (SyneuRx International (Taiwan) Corp., priority 2016, dated 2020).

Columns and labels:
[1] = system: primary cortical neuronal culture; experiment: Detection of cellular reactive oxygen species (CellROX) after 3-NP in primary cortical culture; type: cell-based, rat; details: for ROS production induced by 3-NP: 0.5 mM, incubated 24 hours before 3-NP
Method: Reactive oxygen species (ROS) are detected on primary cortical neuronal culture by CellROX Oxidative Reagents (catalog number 10444, Life Technologies Corp. USA). […] The cells were then exposed to 2.5 mM 3-NP for 24 hours. Subsequently, […] CellROX Reagent was added, and then incubated for […]. CellROX Green Reagent is a DNA dye, and upon oxidation, it binds to DNA; thus, its signal is localized in the nucleus and mitochondria. ROS were quantified by fluorescence intensity. The samples were observed under a laser scanning confocal microscope Zeiss LSM700 (Zeiss, Germany) equipped with filter sets to detect fluorescent signal.

primary cortical neurons [2] = experiment: 3-NP induced toxicity in primary cortical culture (Hoechst staining, MAP-2 immunocytochemistry); type: cell-based, rat; details: exposure to 3-NP alone (2.5 mM, 24 h); untreated 0.1
Method: Primary cortical cultures were prepared from embryonic day 18 (E18) fetal Sprague Dawley (SD) rat brains. The cells were maintained in Neurobasal medium supplemented with B27 (GIBCO/Life Technologies of Thermo Fisher Scientific Corporation) at 37° C. for 7 days to allow growth of dendrites before experimentation.
3-NP (Cat. No. 73803, Sigma, St. Louis, Mo., USA) was dissolved in phosphate-buffered saline (PBS) as a stock solution of 1 M and adjusted to pH 7.4 with 10 M sodium hydroxide. The 3-NP stock solution was then dispensed into 1-ml aliquots, protected from light, and stored at −20° C. until use.
Hoechst staining is used to assess the extent of the cell survival. Cells were fixed in 4% paraformaldehyde (PFA) in phosphate-buffered saline (PBS), incubated with the Hoechst 33342 diluted in PBS (1:1000) for 5-15 minutes. The Hoechst staining is used to assess the extent of the cell survival after the exposure to 2.5 mM 3-NP for 24 hours.
Cells were fixed in 4% PFA and washed in PBS, blocked with 2% bovine serum albumin (BSA) and treated by 0.03% Triton X-100 in PBS, before being incubated with mouse monoclonal antibody against microtubule-associated protein-2 (MAP-2) in 1:150 dilution (Cat. No. MAB378, CHEMICON International, Inc., Temecula, Calif., USA). The goat anti-mouse IgG Alexa fluor-conjugated secondary antibodies (Cat No. A11003, Thermo Scientific) in 1:500 dilution were applied to recognize the primary antibodies of the MAP-2. For confocal microscopy, the coverslips were observed under a laser-scanning confocal microscope (Zeiss LSM700; Oberkochen, Germany) equipped with filter sets to detect the corresponding fluorescent signals.
The cells were then exposed to 2.5 mM 3-NP for 24 hours.
Quantitative analysis was also performed to assess the extents of cell death. At least three vision fields were randomly selected and the averaged numbers of dead cells and all nuclei per vision field on each coverslip were calculated.

SH-SY5Y cells = experiment: MPTP toxicity in SH-SY5Y cells, MTT assay; type: cell-based, human; details: MPTP 750 μM, 24 hrs
Method: SH-SY5Y, the human neuroblastoma cell line, was incubated with MPTP (750 μM) for 24 hrs.

[3] = system: GFAP positive cells in cortical culture; experiment: GFAP immunocytochemistry in cortical culture after Aβ25-35; type: cell-based, rat; details: post-treatment 1 mM
Method: Cells were fixed in 4% PFA and washed in PBS, blocked with 2% bovine serum albumin (BSA) and 0.03% Triton X-100 in PBS, and then incubated with mouse monoclonal antibody against microtubule-associated protein-2 (MAP-2) (Cat. No. MAB378, 1:150, CHEMICON International, Inc., Temecula, Calif., USA); rabbit polyclonal antibody against GFAP (Cat. No. Z0334, 1:600, DakoCytomation Denmark A/S, Denmark). The goat anti-mouse IgG Alexa Fluor-conjugated secondary antibodies (1:500; Cat No. A11003, Thermo Scientific); anti-rabbit IgG Alexa Fluor-conjugated secondary antibodies (1:500; Thermo Scientific) were applied respectively to recognize the primary antibodies of the MAP-2 and GFAP.
The coverslips were observed under a digital imaging fluorescence microscope (Olympus BX61; Japan) equipped with filter sets to detect the corresponding fluorescence signals.
Glial fibrillary acidic protein (GFAP) is an intermediate filament protein expressed by cells in the CNS, and is also recognized as an astrocyte maturation marker. Upregulation of GFAP, indicating gliosis, is commonly observed after CNS lesion; therefore, expression of GFAP could be useful to understand the state of neurological diseases.

primary cortical neurons [4] = experiment: Aβ25-35 cytotoxicity in primary cortical culture, cell survival (MTT); details: 10 μM Aβ 25-35 for 2 days, then drug 1 mM for 4 days; vs no drug treatment
Method: MTT assay was used to assess the extents of cell survival. MTT (3-(4,5-dimethylthiazol-2-yl)-2,5-diphenyltetrazolium bromide) was added to the culture, incubated at 37° C. for 4 hours. Insoluble purple formazan products were yield by living cells. The colorimetric method was used to quantify the surviving cells, and “cell survival (%)” was defined as the mean numbers of surviving cells.
Primary cortical cultures were prepared as previous described. Aβ25-35 (Cat. No. A4559, Sigma) was dissolved in autoclaved ddH2O to make a stock solution of 2 mM, dispensed into aliquots, and immediately stored at −80° C. until use.

cortical neurons = experiment: Mitochondrial respiration, XF Cell Mito Stress Test (OCR); type: cell-based, rat; details: 3 mM, pre-treatment 24 h
Method: The preparation of primary cortical culture was as described before, but the cells were seeded on XF 96 well cell culture microplates. On the day of assay, culture media were changed to XF Assay medium (Seahorse Biosciences, USA). Prior to assay, plates were transferred into an incubator with CO2 supplementation at 37° C. and kept for 1 hour. The overall OCR was calculated.
The XF Cell Mito Stress Test modulates respiration that target components of the electron transport chain (ETC) in the mitochondria to reveal key parameters of metabolic function. The modulators (oligomycin, FCCP, and a mix of rotenone and antimycin A) are serially injected to measure ATP production, maximal respiration, and non-mitochondrial respiration. Proton leak and spare respiratory capacity are then calculated using these parameters.

[5] = system: cortical cells with Aβ25-35 exposure; experiment: Aβ25-35 cytotoxicity with or without NMDA receptor antagonist MK801, cell survival
Method: Aβ25-35 (Cat. No. A4559, Sigma) was dissolved in autoclaved ddH2O to make a stock solution of 2 mM, dispensed into aliquots, and immediately stored at −80° C. until use.
In this study, the application of MK801 could reveal whether the neuroprotective effects of drugs were mediated by NMDA receptor.

SMILES | number of GFAP positive cells after Aβ25-35 exposure [3] | ROS production induced by 3-NP [1] | spare respiratory capacity (cortical neurons) | further results
O=C(O)CC[N+](=O)[O-] [3-NP, 3-Nitropropionic acid, reference compound] |  |  |  | increase of ROS production ([1]; 3-NP alone): more than 50%; death index (ratio of dead cells to survived cells) (primary cortical neurons [2]): 0.4
CN1CC=C(c2ccccc2)CC1 [MPTP, 1-methyl-4-phenyl-1,2,3,6-tetrahydropyridine, reference compound] |  |  |  | cell number reduction (SH-SY5Y cells): about 50%
[Cl-].[Li+] [lithium chloride, reference compound] | significantly reduced | reduce the amount of cellular ROS | less effective than LiBen | cortical cell survival after Aβ25-35 (primary cortical neurons [4]): statistical improvement
O=C([O-])c1ccccc1.[Na+] [sodium benzoate, reference compound] | did not influence | reduce the amount of cellular ROS | less effective than LiBen | protective effect in the presence of MK801 ([5]; 1 mM, MK801 10 μM): blocked; cell survival with Aβ25-35 exposure ([5]; post-treatment 1 mM, MK801 0 μM): elevate the cell survival
